# Laboratory results: patent US20060069132A1, “Azolecarboxamide herbicides” (priority 2004, published 2006)
# How the values were obtained:
# velvetleaf = experiment: Test B pre-/postemergence herbicide test; type: in vivo, Abutilon theophrasti
# Source text: (§1) Seeds selected from barnyardgrass (Echinochloa crus-galli (L.) Beauv.), Surinam grass (Urochloa decumbens (Staph) R. D. Webster, previously named Brachiaria decumbens Stapf), cocklebur (Xanthium strumarium L.), corn (Zea mays L.), large crabgrass (Digitaria sanguinalis (L.) Scop.), giant foxtail (Setaria faberi Herim.), lambsquarters (Chenopodium album L.), morningglory (Ipomoea coccinea L.), pigweed (Amaranthus retroflexus L.), rice (Oryza sativa L.) and velvetleaf (Abutilon theophrasti Medik.) were planted and treated preemergence with test chemicals formulated in a non-phytotoxic solvent mixture which included a surfactant.
# (§2) At the same time, plants selected from these crop and weed species and also blackgrass (Alopecurus myosuroides Huds.), wheat (Triticum aestivum L.) and wild oat (Avena fatua L.) were treated with postemergence applications of test chemicals formulated in the same manner. Plants ranged in height from 2 to 18 cm (1- to 4-leaf stage) for postemergence treatments. Plant species in the flooded paddy test consisted of rice (Oryza sativa L.), small flower umbrella sedge (Cyperus difformis L.), ducksalad (Heteranthera limosa (Sw.) Willd.) and barnyardgrass (Echinochloa crus-galli (L.) Beauv.) grown to the 2-leaf stage for testing. Treated plants and controls were maintained in a greenhouse for 13 to 15 days, after which time all species were compared to controls and visually evaluated. Plant response ratings, summarized in Table B, are based on a scale of 0 to 100 where 0 is no effect and 100 is complete control. A dash (-) response means no test result.
# large crabgrass = experiment: Test B pre-/postemergence herbicide test; type: in vivo, Digitaria sanguinalis
# Source text: as §1, §2
# rice = experiment: Test B flooded paddy test; type: in vivo, Oryza sativa; conditions: 1000 g ai/ha, scale 0 to 100 (0 no effect, 100 complete control)
# Experimental: as §2
# barnyardgrass [1] = experiment: Test B pre-/postemergence herbicide test; type: in vivo, Echinochloa crus-galli
# Source text: as §1, §2
# corn = experiment: Test B pre-/postemergence herbicide test; type: in vivo, Zea mays
# Source text: as §1, §2
# cocklebur = experiment: Test B pre-/postemergence herbicide test; type: in vivo, Xanthium strumarium
# Source text: as §1, §2
# blackgrass = experiment: Test B postemergence herbicide test; type: in vivo, Alopecurus myosuroides
# Experimental: as §2
# barnyardgrass [2] = experiment: Test B flooded paddy test; type: in vivo, Echinochloa crus-galli; conditions: 1000 g ai/ha, scale 0 to 100 (0 no effect, 100 complete control)
# Experimental: as §2
# wild oat = experiment: Test B postemergence herbicide test; type: in vivo, Avena fatua
# Experimental: as §2
# morningglory = experiment: Test B pre-/postemergence herbicide test; type: in vivo, Ipomoea coccinea
# Source text: as §1, §2
# giant foxtail = experiment: Test B pre-/postemergence herbicide test; type: in vivo, Setaria faberi
# Source text: as §1, §2
# lambsquarters = experiment: Test B pre-/postemergence herbicide test; type: in vivo, Chenopodium album
# Source text: as §1, §2
# [3] = tested on: small flower umbrella sedge; experiment: Test B flooded paddy test; type: in vivo, Cyperus difformis; conditions: 1000 g ai/ha, scale 0 to 100 (0 no effect, 100 complete control)
# Experimental: as §2
# wheat = experiment: Test B postemergence herbicide test; type: in vivo, Triticum aestivum; set-up: key to Wheat plant response rating: 0 = no effect, 100 = complete control
# Experimental: as §2
# pigweed = experiment: Test B pre-/postemergence herbicide test; type: in vivo, Amaranthus retroflexus
# Source text: as §1, §2
# Surinam grass = experiment: Test B pre-/postemergence herbicide test; type: in vivo, Urochloa decumbens
# Source text: as §1, §2
# ducksalad = experiment: Test B flooded paddy test; type: in vivo, Heteranthera limosa; conditions: 1000 g ai/ha, scale 0 to 100 (0 no effect, 100 complete control)
# Experimental: as §2
# [4] = 500 g ai/ha; visual rating 0-100, 0 no effect, 100 complete control; preemergence
# [5] = Postemergence, 500 g ai/ha; visual rating after 13 to 15 days, scale 0 (no effect) to 100 (complete control)
# [6] = postemergence, 125 g ai/ha; visual rating, scale 0 (no effect) to 100 (complete control)
# [7] = preemergence, 125 g ai/ha; 0 to 100 scale, 0 is no effect, 100 is complete control
# [8] = postemergence, 16 g ai/ha; scale 0 to 100
# [9] = postemergence; 62 g ai/ha; scale 0 to 100
# [10] = 125 g ai/ha; 0 is no effect, 100 is complete control; preemergence
# [11] = 125 g ai/ha; visual rating, scale 0 (no effect) to 100 (complete control); postemergence
# [12] = postemergence, 500 g ai/ha; scale 0 to 100, 0 is no effect, 100 is complete control
# [13] = 125 g ai/ha, visual rating, scale 0 (no effect) to 100 (complete control), postemergence
# [14] = 500 g ai/ha, scale 0 to 100, 0 no effect, 100 complete control, preemergence
structure (smiles),measurement,setting,value
CCCn1nc(C(C)(C)C)cc1C(=O)Nc1cccc(C(C)=NO)c1 [Compound 113],"Plant response rating, Velvetleaf",velvetleaf; [4],20
same,"Plant response rating, Velvetleaf",velvetleaf; [5],60
same,Velvetleaf plant response rating,velvetleaf; [6],20
same,"Plant response rating, Velvetleaf",velvetleaf; [7],20
same,"Plant response rating, Crabgrass, Large",large crabgrass; [4],100
same,"Plant response rating, Crabgrass, Large",large crabgrass; [5],80
same,"Crabgrass, Large plant response rating",large crabgrass; [6],30
same,"Plant response rating, Crabgrass, Large",large crabgrass; [7],100
same,Rice plant response rating,"rice; visual rating, 13 to 15 days",60
same,"Plant response rating, Barnyardgrass",barnyardgrass [1]; [4],90
same,"Plant response rating, Barnyardgrass",barnyardgrass [1]; [5],80
same,Barnyardgrass plant response rating,barnyardgrass [1]; [6],30
same,"Plant response rating, Barnyardgrass",barnyardgrass [1]; [7],60
same,"Plant response rating, Corn",corn; [4],0
same,"Plant response rating, Corn",corn; [5],30
same,Corn plant response rating,corn; [6],30
same,"Plant response rating, Corn",corn; [7],0
same,"Plant response rating, Cocklebur",cocklebur; [4],20
same,"Plant response rating, Cocklebur",cocklebur; [5],100
same,Cocklebur plant response rating,cocklebur; [6],100
same,"Plant response rating, Cocklebur",cocklebur; [7],0
same,"Plant response rating, Blackgrass",blackgrass; [5],20
same,Blackgrass plant response rating,blackgrass; [6],10
same,Barnyardgrass plant response rating,"barnyardgrass [2]; visual rating, 13 to 15 days",70
same,"Plant response rating, Oat, Wild",wild oat; [5],60
same,"Oat, Wild plant response rating",wild oat; [6],40
same,"Plant response rating, Morningglory",morningglory; [4],50
same,"Plant response rating, Morningglory",morningglory; [5],100
same,Morningglory plant response rating,morningglory; [6],20
same,"Plant response rating, Morningglory",morningglory; [7],0
same,"Plant response rating, Foxtail, Giant",giant foxtail; [4],30
same,"Plant response rating, Foxtail, Giant",giant foxtail; [5],40
same,"Foxtail, Giant plant response rating",giant foxtail; [6],30
same,"Plant response rating, Foxtail, Giant",giant foxtail; [7],10
same,"Plant response rating, Lambsquarters",lambsquarters; [4],100
same,"Plant response rating, Lambsquarters",lambsquarters; [5],100
same,Lambsquarters plant response rating,lambsquarters; [6],90
same,"Plant response rating, Lambsquarters",lambsquarters; [7],80
same,"Sedge, Umbrella plant response rating","[3]; visual rating, 13 to 15 days",90
same,"Plant response rating, Wheat","wheat; Postemergence, 500 g ai/ha, visual rating after 13 to 15 days, scale 0 (no effect) to 100 (complete control)",30
same,Wheat plant response rating,"wheat; postemergence, 125 g ai/ha, visual rating, scale 0 (no effect) to 100 (complete control)",10
same,"Plant response rating, Pigweed",pigweed; [4],100
same,"Plant response rating, Pigweed",pigweed; [5],100
same,Pigweed plant response rating,pigweed; [6],90
same,"Plant response rating, Pigweed",pigweed; [7],0
same,"Plant response rating, Surinam Grass",Surinam grass; [4],10
same,"Plant response rating, Surinam Grass",Surinam grass; [5],60
same,Surinam Grass plant response rating,Surinam grass; [6],40
same,"Plant response rating, Surinam Grass",Surinam grass; [7],10
same,Ducksalad plant response rating,"ducksalad; visual rating, 13 to 15 days",90
CCn1nc(C(C)(C)C)cc1C(=O)Nc1cc(C(=O)NC)c(F)cc1F [Compound 251],Velvetleaf plant response rating,velvetleaf; [8],0
same,Velvetleaf plant response rating,velvetleaf; [9],10
same,"Crabgrass, Large plant response rating",large crabgrass; [8],0
same,"Crabgrass, Large plant response rating",large crabgrass; [9],0
same,Rice plant response rating,rice,40
same,Barnyardgrass plant response rating,barnyardgrass [1]; [8],0
same,Barnyardgrass plant response rating,barnyardgrass [1]; [9],0
same,Corn plant response rating,corn; [8],0
same,Corn plant response rating,corn; [9],0
same,Cocklebur plant response rating,cocklebur; [8],0
same,Cocklebur plant response rating,cocklebur; [9],0
same,Blackgrass plant response rating,blackgrass; [8],10
same,Blackgrass plant response rating,blackgrass; [9],50
same,Barnyardgrass plant response rating,barnyardgrass [2],0
same,"Oat, Wild plant response rating",wild oat; [8],20
same,"Oat, Wild plant response rating",wild oat; [9],20
same,Morningglory plant response rating,morningglory; [8],0
same,Morningglory plant response rating,morningglory; [9],0
same,"Foxtail, Giant plant response rating",giant foxtail; [8],0
same,"Foxtail, Giant plant response rating",giant foxtail; [9],0
same,Lambsquarters plant response rating,lambsquarters; [8],0
same,Lambsquarters plant response rating,lambsquarters; [9],10
same,"Sedge, Umbrella plant response rating",[3],40
same,Wheat plant response rating,"wheat; postemergence, 16 g ai/ha, scale 0 to 100",20
same,Wheat plant response rating,"wheat; postemergence, 62 g ai/ha, scale 0 to 100",20
same,Pigweed plant response rating,pigweed; [8],0
same,Pigweed plant response rating,pigweed; [9],10
same,Surinam Grass plant response rating,Surinam grass; [8],0
same,Surinam Grass plant response rating,Surinam grass; [9],0
same,Ducksalad plant response rating,ducksalad,30
CCc1nn(C(C)(C)C)nc1C(=O)Nc1cc(C(=O)N2CC=CC2)ccc1F [Compound 363],"Plant response rating (0 to 100 scale), Velvetleaf",velvetleaf; [10],0
same,Velvetleaf plant response rating,velvetleaf; [11],10
same,"Plant response rating (0 to 100 scale), Crabgrass, Large",large crabgrass; [10],20
same,"Crabgrass, Large plant response rating",large crabgrass; [11],10
same,"Crabgrass, Large plant response rating",large crabgrass; [12],10
same,Rice plant response rating,rice,60
same,"Plant response rating (0 to 100 scale), Barnyardgrass",barnyardgrass [1]; [10],0
same,Barnyardgrass plant response rating,barnyardgrass [1]; [11],0
same,Barnyardgrass plant response rating,barnyardgrass [1]; [12],0
same,"Plant response rating (0 to 100 scale), Corn",corn; [10],0
same,Corn plant response rating,corn; [11],0
same,Corn plant response rating,corn; [12],0
same,"Plant response rating (0 to 100 scale), Cocklebur",cocklebur; [10],0
same,Cocklebur plant response rating,cocklebur; [11],20
same,Cocklebur plant response rating,cocklebur; [12],30
same,Blackgrass plant response rating,blackgrass; [11],20
same,Blackgrass plant response rating,blackgrass; [12],70
same,Barnyardgrass plant response rating,barnyardgrass [2],60
same,"Oat, Wild plant response rating",wild oat; [11],20
same,"Plant response rating (0 to 100 scale), Morningglory",morningglory; [10],0
same,Morningglory plant response rating,morningglory; [11],50
same,"Plant response rating (0 to 100 scale), Foxtail, Giant",giant foxtail; [10],20
same,"Foxtail, Giant plant response rating",giant foxtail; [11],10
same,"Foxtail, Giant plant response rating",giant foxtail; [12],10
same,"Plant response rating (0 to 100 scale), Lambsquarters",lambsquarters; [10],0
same,Lambsquarters plant response rating,lambsquarters; [11],30
same,"Sedge, Umbrella plant response rating",[3],80
same,Wheat plant response rating,wheat; [13],10
same,Wheat plant response rating,wheat; [14],30
same,"Plant response rating (0 to 100 scale), Pigweed",pigweed; [10],0
same,Pigweed plant response rating,pigweed; [11],20
same,"Plant response rating (0 to 100 scale), Surinam Grass",Surinam grass; [10],0
same,Surinam Grass plant response rating,Surinam grass; [11],10
same,Ducksalad plant response rating,ducksalad,90
CCc1nn(C(C)(C)C)nc1C(=O)Nc1cccc(C(=O)N(C)C)c1 [Compound 364],"Plant response rating (0 to 100 scale), Velvetleaf",velvetleaf; [10],100
same,Velvetleaf plant response rating,velvetleaf; [11],20
same,"Plant response rating (0 to 100 scale), Crabgrass, Large",large crabgrass; [10],100
same,"Crabgrass, Large plant response rating",large crabgrass; [11],30
same,"Crabgrass, Large plant response rating",large crabgrass; [12],70
same,Rice plant response rating,rice,90
same,"Plant response rating (0 to 100 scale), Barnyardgrass",barnyardgrass [1]; [10],100
same,Barnyardgrass plant response rating,barnyardgrass [1]; [11],10
same,Barnyardgrass plant response rating,barnyardgrass [1]; [12],70
same,"Plant response rating (0 to 100 scale), Corn",corn; [10],80
same,Corn plant response rating,corn; [11],10
same,Corn plant response rating,corn; [12],40
same,"Plant response rating (0 to 100 scale), Cocklebur",cocklebur; [10],70
same,Cocklebur plant response rating,cocklebur; [11],40
same,Cocklebur plant response rating,cocklebur; [12],50
same,Blackgrass plant response rating,blackgrass; [11],30
same,Blackgrass plant response rating,blackgrass; [12],80
same,Barnyardgrass plant response rating,barnyardgrass [2],90
same,"Oat, Wild plant response rating",wild oat; [11],20
same,"Plant response rating (0 to 100 scale), Morningglory",morningglory; [10],70
same,Morningglory plant response rating,morningglory; [11],20
same,"Plant response rating (0 to 100 scale), Foxtail, Giant",giant foxtail; [10],100
same,"Foxtail, Giant plant response rating",giant foxtail; [11],10
same,"Foxtail, Giant plant response rating",giant foxtail; [12],50
same,"Plant response rating (0 to 100 scale), Lambsquarters",lambsquarters; [10],100
same,Lambsquarters plant response rating,lambsquarters; [11],70
same,"Sedge, Umbrella plant response rating",[3],100
same,Wheat plant response rating,wheat; [13],10
same,Wheat plant response rating,wheat; [14],100
same,"Plant response rating (0 to 100 scale), Pigweed",pigweed; [10],100
same,Pigweed plant response rating,pigweed; [11],40
same,"Plant response rating (0 to 100 scale), Surinam Grass",Surinam grass; [10],100
same,Surinam Grass plant response rating,Surinam grass; [11],30
same,Ducksalad plant response rating,ducksalad,100
